Experimental data as given in patent US20230144898A1, “INHIBITOR OF ASPARTIC ACID SYNTHESIS IN TUMOR CELLS, INHIBITOR OF SPHEROID FORMATION OF TUMOR CELLS, INHIBITOR OF TUMOR CELL METASTASIS, ACTIVITY ENHANCER OF GLYCOLYTIC INHIBITOR, AND PHARMACEUTICAL COMPOSITION FOR SUPPRESSING AND/OR PREVENTING TUMOR METASTASIS” (CCI HOLDINGS INC., priority 2020, published 2023).
Several values for one entry are separate records, joined by “and”; a condition that tells them apart may be missing. Equal entries are not always repeated. Where two headings read alike, the source gives them in different places.

Columns and labels:
[1] = test system: CMeCl cells (canine malignant melanoma cells); assay: Proliferation inhibition, CMeC1 cells, trypan blue viable cell count (Test Example 1); assay type: cell-based; conditions: for IC50: Cell line: CMeC1, incubated for 72 hours
Description: Four compounds of petasin, S-petasin, neopetasin and neo-S-petasin were evaluated for the inhibitory effect on proliferation of mouse or canine malignant melanoma cells by the following method.
B16F10 cells (mouse malignant melanoma cells) were obtained from JCRB Cell Bank (National Institutes of Biomedical Innovation, Health and Nutrition). In addition, CMeCl cells (canine malignant melanoma cells) were obtained from Veterinary Surgery Laboratory, Graduate School of Agricultural and Life Sciences, the University of Tokyo. Furthermore, A2058 cells (human malignant melanoma cells) were obtained from JCRB Cell Bank (National Institutes of Biomedical Innovation, Health and Nutrition). B16F10 cells were cultured in a 37° C. incubator (air/CO2 = 95/5 (v/v)) using Dulbecco’s modified Eagle’s medium (DMEM), CMeCl cells in RPMI (Roswell Park Memorial Institute) medium (RPMI1640), and A2058 cells in E-MEM medium.
First, CMeCl cells (canine malignant melanoma cells) were seeded in a six-well plate so as to be 0.5×10^5 cells/mL, and after 24 hours therefrom, each of the above four kinds of compounds (final concentration: 0.01 to 100 µg/mL) was suspended in the medium at a ratio of 0.1% and incubated for 72 hours. 72 hours after the start of culture, the number of viable cells was measured by trypan blue staining. At this time, viable cells (cell viability%) were calculated as the relative number of cells when the number of viable cells in a negative control section (DMSO treatment) was taken as 100%. Then, IC50 was calculated using a GraphPad Prism software system (GraphPad Software Inc.).

[2] = test system: B16F10 cells (mouse malignant melanoma cells); assay: Proliferation inhibition, B16F10 cells (Test Example 1); assay type: cell-based; conditions: B16-F10, read-out: IC50, proliferation inhibitory activity on B16F10 cells
B16F10 cells [3] = assay: Spheroid formation assay (Test Example 4); assay type: cell-based, mouse; conditions: 0.3 µM or 3 µM; 24, 48 and 72 hours
Description: Specifically, B16F10 cells were seeded in an amount of 0.3×10^5 cells/mL in a 96-well plate for spheroid formation in an amount of 100 µL each. Thereupon, neopetasin at a concentration of 0.3 µM or 3 µM was added to the medium. Cells were photographed using a phase-contrast microscope after 24 hours, 48 hours and 72 hours of adding neopetasin. Moreover, as a negative control section, DMSO was administered to perform the same experiment.

[4] = test system: mitochondria in B16F10 cells; assay: MitoTracker Orange staining of mitochondria (Test Example 8); assay type: cell-based, mouse
Description: In order to determine the action mechanism of neopetasin on inhibiting the aspartic acid synthesis in tumor cells, the influence of neopetasin on mitochondria in B16F10 cells was evaluated. Specifically, B16F10 cells treated with neopetasin (3 µM) for 48 hours through the same method as in Test Example 1 were stained using MitoTracker Orange (Thermo Fisher Scientific, MA, USA), which labels mitochondria depending on membrane potential. In addition, as a positive control section, in place of neopetasin, metformin known as a mitochondrial respiratory chain Complex I inhibitor (mitochondrial toxin) was used at a concentration of 5000 µM to perform the same experiment. Subsequently, the cells stained as described above were photographed with a fluorescence microscope (FIG. 9A). In addition, the relationship between fluorescence intensity of the cells and the distribution of the number of cells was measured using an image cytometer (Tali, Thermo Fisher Scientific, MA, USA) (FIG. 9B).

[5] = test system: KMeC cells (canine malignant melanoma cells); assay: Western blotting of cancer-related proteins, KMeC cells (Test Example 10); assay type: cell-based; conditions: 3 µM, 56 hours
Description: KMeC cells (canine malignant melanoma cells) were obtained from the Veterinary Surgery Laboratory, Graduate School of Agricultural and Life Sciences, the University of Tokyo. KMeC cells were cultured in an incubator (air/CO2 = 95/5 (v/v)) at 37° C. using RPMI1640 medium.
To start with, each cell was seeded at 0.5×10^5 cells/mL in a six-well plate, and after 24 hours of seeding, neopetasin (final concentration: 3 µM) was suspended in a medium and incubated for 56 hours. […] thus treated with neopetasin (3 µM) for 56 hours were recovered with a cell scraper. Furthermore, DMSO was administered to the negative control section, and the same experiment was performed.
Next, the cells were homogenized in ice-cold lysis buffer (10 mM Tris-HCl (pH 7.4), 1% (w/v) NP-40, 0.1% (w/v) deoxycholic acid, 0.1% (w/v) SDS, 150 mM NaCl, 1 mM EDTA, and 1% (w/v) protease inhibitor cocktail (Sigma-Aldrich) and allowed to stand on ice for 20 minutes. The homogenate was centrifuged at 13,000 rpm for 20 minutes (4° C.), and then the supernatant was collected as a sample for Western blotting. The protein content in the sample was measured using a DC protein assay kit (manufactured by Bio-Rad Laboratories, Inc.). A sample (protein amount of 5 µg) was separated by SDS-PAGE using 10.0 or 12.5% (w/v) polyacrylamide gel, and transferred to a PVDF membrane (PerkinElmer Life Science Co., Ltd). […]

B16F10 cells [6] = assay: Metabolomic analysis (amino acids) by CE-TOFMS (Test Example 7); assay type: cell-based, mouse
Description: The metabolomic analysis (amino acids) of neopetasin-treated B16F10 cells was performed. Specifically, for B16F10 cells treated with neopetasin (3 µM) through the same method as in Test Example 1, the cells were recovered at each time point of 9 hours and 48 hours after the treatment, and amino acid concentration was measured using a capillary electrophoresis-time of flight mass spectrometer (CE-TOFMS). Furthermore, the amino acid concentration in the sample was measured according to an internal standard calibration method, and the internal standard concentration in the sample was calculated as 25 µM. Moreover, for the analysis, Master Hands ver. 2.17.3.18 (Institute for Advanced Biosciences, Keio University) was used.

With `C=C(C)[C@H]1C[C@@]2(C)C(=CC1=O)CC[C@@H](OC(=O)/C(C)=C\C)[C@@H]2C` [Neopetasin, neopetasin] the “inhibitory effect on proliferation of CMeCl cells” value ([1]; 72 hours) was “showed the strongest activity”, the IC50 ([1]; Canis lupus familiaris, 72 h, read-out: IC50) was 990 nM and the IC50 ([1]; Canis lupus familiaris, 72 h, read-out: IC50 (µg/mL)) was 0.314 µg/mL. For the same compound, the IC50 ([1]; read-out: IC50) was 991 nM, the IC50 [2] was 493 nM and 0.156 µg/mL and the spheroid formation (B16F10 cells [3]) was “could not form spheroids”. The “activity relative to metformin” value ([4]; neopetasin 3 µM vs metformin 5000 µM) was at least 1000 times, the “MitoTracker Orange fluorescence intensity” value ([4]; neopetasin 3 µM, metformin 5000 µM, 48 hours) was “enhanced fluorescence intensity” and the “expression of cancer-related molecules” value [5] was “inhibit a wide range of cancer-related molecules”. For the same compound, the “concentration of aspartic acid (Asp) in the sample” value (B16F10 cells [6]; 3 µM, after 9 hours) was “strongly reduced” and the “aspartic acid synthesis, remaining fraction” value (B16F10 cells [6]; summary statement) was “⅒”.
